Results as given in patent US20110124607A1, “COMPOSITION FOR REGULATION CELLULAR SENESCENCE COMPRISING LYSOPHOSPHATIDIC ACID AND INHIBITOR OF ADENYLYL CYCLASE AS ACTIVE INGREDIENTS” (priority 2008, published 2011).

How the values were obtained:
Assay type in all cases: cell-based, human
[1] = test system: LKB1; experiment: Immuno-blotting of LKB1; settings: 1, 2, 4 days
Method: (§1) FIG. 8 is a set of photographs illustrating the effects of LPA and ACI on LKB1 phosphorylation in senescent cells. Precisely, sub-cultured young cells (PD 18) and senescent cells (PD64) were treated with 30 μM of LPA or 300 μM of LPA and ACI singly or together. After culturing the cells for 1, 2, and 4 days, proteins were extracted from the cultured cells and the levels of LKB1, p-Ser431-LKB1 and β-actin were quantified by immuno-blotting using 45 μg of the protein.
To analyse protein expression, human fibroblasts were lysed in cold lysis buffer (25 mM Hepes, pH 8.0, 150 mM NaCl, 1 mM EDTA, 1 mM Na3VO4, 1 mM NaF, 1% Triton X-100 and protease inhibitors), followed by centrifugation at 4° C. at 9,000 rpm for 10 minutes to obtain supernatant. Protein in the extract was quantified […]. SDS-PAGE electrophoresis was performed with equal amount of the protein (45 μg) to separate. The separated protein was transferred onto NC membrane from the electrophoresis gel. Non-specific protein binding was blocked by blocking the blot (transferred NC membrane) using TTBS […] containing 5% skim milk for one hour. Then, antigen-antibody reaction was induced with diluted primary antibody at 4° C. for overnight. […]

[2] = test system: p-Ser431-LKB1; experiment: Immuno-blotting of p-Ser431-LKB1; settings: 30 μM LPA, 300 μM ACI, 1, 2, 4 days
Method: as §1
(§2) To analyse protein expression, human fibroblasts were lysed in cold lysis buffer (25 mM Hepes, pH 8.0, 150 mM NaCl, 1 mM EDTA, 1 mM Na3VO4, 1 mM NaF, 1% Triton X-100 and protease inhibitors), followed by centrifugation at 4° C. at 9,000 rpm for 10 minutes to obtain supernatant. Protein in the extract was quantified […]. SDS-PAGE electrophoresis was performed with equal amount of the protein (45 μg) to separate. The separated protein was transferred onto NC membrane from the electrophoresis gel. Non-specific protein binding was blocked by blocking the blot (transferred NC membrane) using TTBS […] containing 5% skim milk for one hour. Then, antigen-antibody reaction was induced with diluted primary antibody at 4° C. for overnight. The blot was washed with TTBS, followed by reaction with horseradish peroxidase conjugated anti-IgGs diluted in TTBS containing 5% skim milk (1:5000) at room temperature for one hour. The blot was washed again with TTBS to eliminate non-specific binding of antigen-antibody. Photographs were developed/printed on X-ray film (Kodak) using ECL kit (Pierce) containing peroxidase substrate to identify each protein.
It has been recently discovered that the tumor suppressor gene LKB1 is a member of AMPKK family (Hawley et al., 2003; Shaw et al., 2004; Woods et al., 2003a). Ser431-LKB1 phosphorylation promotes cell growth in the activated form of LKB1 (Sapkota et al., 2001). So, in this experiment, it was examined what effect the single treatment or co-treatment of LPA and ACI has on the expressions of p-Ser431-LKB1, LKB1 and β-actin (FIG. 8). […] Meanwhile, LKB1 expression therein was not changed.

[3] = test system: p-Ser485/491-AMPKα; experiment: Immuno-blotting of p-Ser485/491-AMPKα; settings: for p-Ser485/491-AMPKα expression after suppressing PKA: senescent cells pre-treated with 10 mM PKA inhibitor Rp-cAMP for one hour; for Ser485/491-AMPKα phosphorylation: 30 μM LPA, 300 μM ACI, up to day 4
Method: (A) and (B) are photographs illustrating the results of immuno-blotting. Precisely, sub-cultured young cells (PD 18: A) and senescent cells (PD 64: B) were treated with 30 μM of LPA […] and ACI singly or together, followed by further culture for 1, 2, and 4 days. Proteins were extracted from the cultured cells and the levels of AMPKα, p-Thr172-AMPKα, p-Ser485/491-AMPKα, p53, p-Ser15-p53, p21waf1/cip1 and β-actin were quantified by immuno-blotting.
(A) and (B) are photographs illustrating the results of immuno-blotting. Precisely, senescent cells (PD 64) were pre-treated with 10 mM of PKA inhibitor Rp-cAMP for one hour, followed by treatment with LPA(A) or ACI(B). After culturing the cells for 1, 2, and 4 days, proteins were extracted from the cultured cells and the levels of AMPKα, p-Thr172-AMPKα, p-Ser485/491-AMPKα, p53, p-Ser15-p53, p21waf1/cip1 and β-actin were quantified by immuno-blotting using 45 μg of the protein.
as §2

[4] = test system: p21waf1/cip1; experiment: Immunofluorescent staining of p21; settings: 30 μM LPA, 300 μM ACI, day 2 and day 4
Method: FIG. 3 is a set of photographs illustrating the effect of LPA and ACI on the expressions of p21 and cyclin-D1 in young and senescent cells. Particularly, a-f, g-l and m-r are photographs illustrating that sub-cultured young cells (PD 20: Y) and senescent cells (PD 65: S) were serum-starved for 48 hours respectively, followed by treatment of LPA (a-f) and ACI (g-l) singly or together (m-r), and after culturing for 1, 2, and 4 days, the cells were fixed in 4% hydrogen peroxide, and stained with p21waf1/cip1 (A) and cyclin D1 (B) antibodies, followed by confirming immunofluorescence. At this time, nucleus was stained with DAPI.
Coverslips were placed on 24 well plate on which required amounts of young and senescent cells were distributed. Media were eliminated and the treated cells were washed with PBS twice. Then, the cells were fixed with 4% hydrogen peroxide. Non-specific protein staining was blocked using PBS containing 2% BSA (blocking serum). The cells were stained with primary antibody such as anti-AMPKα, anti-p-Thr172-AMPKα, anti-p-Ser485/491-AMPKα, anti-p53, anti-p-Ser15-p53, anti-p21waf1/cip1, and anti-cyclin D1. To stain nucleus, DAPI (1:1000) was also added, followed by observation under Zeiss LSM 510 laser scanning microscope.
Cells were treated with 30 μM of LPA, 300 μM of ACI or LPA+ACI for 4 days, followed by immunofluorescence to investigate p21 and cyclin D1 expressions (FIG. 3A). As a result, when young cells were treated with ACI alone or LPA+ACI, p21 expression was increased on day 2 and day 4 (FIG. 3A).

Compound	LKB1 expression ([1]; senescent cells, 300 μM ACI)	Ser431-LKB1 phosphorylation ([2]; senescent cells)	Ser431-LKB1 phosphorylation ([2]; young cells)	p-Ser485/491-AMPKα expression after suppressing PKA [3]	Ser485/491-AMPKα phosphorylation ([3]; senescent cells)	Ser485/491-AMPKα phosphorylation ([3]; young cells)	p21 expression (immunofluorescence) ([4]; senescent cells)	p21 expression (immunofluorescence) ([4]; young cells)	LKB1 expression ([1]; young cells, 30 μM LPA)
Nc1ncnc2c1ncn2C1CCCO1 (stereo not drawn) [ACI, 9-(tetrahydro-2′-furyl)adenine]	reduced	reduced	increased	not changed	did not affect	reduced	reduced	increased	–
lysophosphatidic acid [LPA]	–	gradually increased	gradually reduced	not changed at all	gradually increased	reduced	–	decrease	not changed
